Assay in all cases: NCI anticancer screen, dose series, 48 h
Experiment [1] has as its system 786-0 renal.
Experiment [2] relates to ACHN renal.
The subject of experiment [3] is BT-549 breast.
Experiment [4] concerns COLO 205 colon.
For experiment [5], the system named is HCT-116 colon.
Experiment [6] deals with HCT-15 colon.
Experiment [7] concerns HS 578T breast.
Experiment [8] deals with IGROV1 ovarian.
In experiment [9] the test system is MDA-MB-435.
Experiment [10] deals with MOLT-4 leukemia.
In experiment [11] the test system is NCI-H460 lung.
Experiment [12] relates to OVCAR-5 ovarian.
Experiment [13] has as its system SF-268 CNS.
Experiment [14] concerns SK-MEL-28 melanoma.
Experiment [15] has as its system SK-OV-3 ovarian.
The test system of experiment [16] is SW-620 colon.
The subject of experiment [17] is T-47D breast.
The test system of experiment [18] is UO-31 renal.

TGI data for 15 molecules are collected here from PubChem BioAssay (NCI).

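Values below derive from 48-hour exposures of cells grown in 96-well plates, with endpoints linearly interpolated between the two concentrations bracketing the appropriate inhibition level. At the TGI there is no net growth.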

On to `COc1cc2c(cc1OC)C(=O)C1(C2)[C@H](c2ccccc2)C2C(=O)c3cc(OC)c(OC)cc3C2[C@H]1c1ccccc1` (stereo not given in full), for which the TGI in experiment [1], in [2], in experiment [3], in experiment [4], in experiment [5] and in experiment [6] was over 100 µM throughout. In addition, the TGI in experiment [7], in [8], in [9], in experiment [10], in experiment [11] and in experiment [12] was over 100 µM each time. Further, the TGI in experiment [13], in experiment [14], in experiment [15], in experiment [16], in experiment [17] and in experiment [18] was over 100 µM in each case.
Take `O=c1[nH]nc(-c2ccccc2)n1/N=C/c1ccccc1Cl`: the TGI in experiment [1], in experiment [2], in experiment [3], in experiment [4], in [5] and in experiment [6] was over 100 µM throughout. The TGI was over 100 µM in experiment [7]; over 100 µM in experiment [8]; 60.2 µM in [9]; 56.5 µM in [10]; 32.2 µM in [11]; over 100 µM in experiment [12]. Also, the TGI in experiment [13], in [14], in experiment [15], in experiment [16], in experiment [17] and in experiment [18] was over 100 µM in each case.
For `Oc1cc(N2CCCC2)ccc1/C=N/N1C(=S)N(c2ccccc2)C(=Nc2ccccc2)C1=Nc1ccccc1`, the TGI in [1], in experiment [2], in experiment [3], in [4], in experiment [5] and in experiment [6] was over 100 µM throughout. The TGI in experiment [7], in [8], in experiment [9], in [10], in experiment [11] and in experiment [12] was over 100 µM in each case. In addition, the TGI in experiment [13], in [14], in experiment [15], in experiment [16], in [17] and in [18] was over 100 µM each time.
Take `CC(=O)c1ccc2c(c1)CC1(C2)Cc2ccc3c(c2C1=O)CCC3` (stereo not given): the TGI in [1] is 40.8 µM; in [2], over 100 µM; in experiment [3], over 100 µM; in experiment [4], 39.9 µM; in experiment [5], over 100 µM; in experiment [6], over 100 µM. Besides, the TGI was over 100 µM in experiment [7]; over 100 µM in [8]; 45.3 µM in [9]; over 100 µM in experiment [10]; over 100 µM in experiment [11]; over 100 µM in [12]. Further, the TGI in experiment [13] is over 100 µM; in experiment [14] it was 56.5 µM; in experiment [15], over 100 µM; in [16], over 100 µM; in [17], 94.5 µM; in experiment [18], over 100 µM.
As for `COc1cc2c(cc1O)C1(Cc3ccc4c(c3C1=O)OCO4)N(C)CC2` (stereo not given), the TGI in [1], in experiment [2], in experiment [3], in experiment [4], in experiment [5] and in experiment [6] was over 100 µM in each case. The TGI in experiment [7], in experiment [8], in experiment [9], in [10], in experiment [11] and in experiment [12] was over 100 µM each time. Moreover, the TGI in [13], in experiment [14], in [15], in experiment [16], in experiment [17] and in experiment [18] was over 100 µM each time.
`O=C(CCc1ccccc1)n1cccc1CO`: the TGI in experiment [1], in experiment [2], in experiment [3], in experiment [4], in experiment [5] and in experiment [6] was over 100 µM in each case. Besides, the TGI in [7], in experiment [8], in experiment [9], in [10], in experiment [11] and in experiment [12] was over 100 µM in each case. Further, the TGI in experiment [13], in [14], in experiment [15], in [16], in experiment [17] and in experiment [18] was over 100 µM throughout.
For the molecule `COc1cc(/C=C\c2nnc(/C=C\c3ccc(O)c(OC)c3)s2)ccc1O`, the TGI in experiment [1] was over 100 µM; in [2], 22.3 µM; in [3], 11.1 µM; in [4], 41.4 µM; in experiment [5] it was 14 µM; in [6], 18.1 µM. For the same molecule, the TGI was over 37.8 µM in experiment [7]; over 36.6 µM in [8]; 0.549 µM in experiment [9]; 10.7 µM in experiment [10]; over 35.2 µM in experiment [11]; 48.8 µM in experiment [12]. For the same molecule, the TGI is 41.2 µM in [13]; over 100 µM in [14]; 30.6 µM in experiment [15]; over 23.7 µM in experiment [16]; 7.38 µM in experiment [17]; 15.3 µM in experiment [18].
Take `CCOC(=O)c1c(C)n(C)c2c1cc(O)c1[nH]c3c(c12)CCCC3`: the TGI was 42.3 µM in [1]; over 100 µM in experiment [2]; over 100 µM in experiment [3]; 23.5 µM in experiment [4]; 50.3 µM in experiment [5]; over 100 µM in experiment [6]. Also, the TGI in experiment [7] stood at 87.4 µM; in experiment [8], 37.2 µM; in experiment [9], 29.6 µM; in experiment [10] it was 45.6 µM; in [11] it was 42.9 µM; in experiment [12], 65.1 µM. The TGI is 21.8 µM in [13]; 32.8 µM in experiment [14]; over 100 µM in experiment [15]; 44.1 µM in experiment [16]; 48.4 µM in experiment [17]; 69.9 µM in experiment [18].
Turning to `Cn1c2ccccc2c(=O)c2cccc(C(=O)NCC(=O)O)c21`, the TGI in [1], in experiment [2], in experiment [3], in experiment [4], in experiment [5] and in experiment [6] was over 100 µM in each case. For the same molecule, the TGI in experiment [7], in [8], in [9], in experiment [10], in [11] and in [12] was over 100 µM each time. Besides, the TGI in [13], in experiment [14], in [15], in experiment [16], in [17] and in experiment [18] was over 100 µM each time.
With `Clc1ccc(OCc2nnc3sc(-c4ccc(-c5ccc(Cl)cc5Cl)o4)nn23)cc1`, the TGI in [1], in [2], in experiment [3], in experiment [4], in experiment [5] and in experiment [6] was over 100 µM in each case. Besides, the TGI in experiment [7], in experiment [8], in [9], in experiment [10], in experiment [11] and in experiment [12] was over 100 µM each time. Moreover, the TGI in [13], in [14], in experiment [15], in experiment [16], in experiment [17] and in [18] was over 100 µM throughout.
Take `CC(C)Oc1cccc(N2C(=NCCc3c[nH]c4ccccc34)Nc3ccncc3S2(=O)=O)c1`: the TGI in experiment [1] was 5.35 µM; in experiment [2], over 100 µM; in experiment [3], over 100 µM; in experiment [4] it was 4.08 µM; in [5], over 100 µM; in [6], over 100 µM. The TGI in [7], in experiment [8], in [9], in [10], in experiment [11] and in experiment [12] was over 100 µM each time. Also, the TGI in experiment [13], in [14], in experiment [15], in experiment [16], in [17] and in experiment [18] was over 100 µM throughout.
For `CCCCCCCCCCCCCCCCCCNc1nc(=O)n(C2CC(O)C(COP(=O)(O)OCC3OC(n4ccc(N)nc4=O)C(O)C3O)O2)cc1F` (stereo not given), the TGI in experiment [1] was over 100 µM; in experiment [2] it was over 100 µM; in [3] it was over 100 µM; in experiment [4] it was over 100 µM; in experiment [5], over 100 µM; in [6], 38 µM. Further, the TGI in experiment [7], in experiment [8], in [9], in experiment [10], in experiment [11] and in [12] was over 100 µM throughout. Moreover, the TGI in experiment [13], in experiment [14], in experiment [15], in experiment [16], in experiment [17] and in experiment [18] was over 100 µM each time.
As for `ON[C@H]1C[C@@H](n2cnc3c(NC4CC4)ncnc32)[C@H](O)[C@@H]1O`, the TGI in experiment [1], in experiment [2], in experiment [3], in [4], in experiment [5] and in experiment [6] was over 100 µM in each case. The TGI in experiment [7], in [8], in experiment [9], in experiment [10], in experiment [11] and in experiment [12] was over 100 µM each time. Further, the TGI in [13], in [14], in experiment [15], in [16], in experiment [17] and in [18] was over 100 µM each time.
Take `ONC1=Nc2ccccc2C(=S)N2CSCC12` (stereo not given): the TGI in experiment [1], in experiment [2], in [3], in experiment [4], in experiment [5] and in experiment [6] was over 100 µM in each case. In addition, the TGI in experiment [7] is over 100 µM; in [8] it was over 100 µM; in experiment [9], 48.1 µM; in [10], over 100 µM; in [11] it was 42.3 µM; in experiment [12], over 100 µM. Further, the TGI in experiment [13], in [14], in experiment [15], in experiment [16], in [17] and in experiment [18] was over 100 µM throughout.
In the case of `C[N+](C)(C)CC(=O)N/N=C(\C(=O)NC1=C(Cl)C(=O)c2ccccc2C1=O)C(C#N)c1nc(-c2ccc([N+](=O)[O-])cc2)cs1` (stereo not given), the TGI in experiment [1] was 29.1 µM; in experiment [2] it was 26 µM; in experiment [3], 15.1 µM; in experiment [4] it was 35 µM; in experiment [5], 20.8 µM; in [6], 18.8 µM. In addition, the TGI in experiment [7] was determined as 40.6 µM; in experiment [8] it was 18.4 µM; in experiment [9], 3.17 µM; in experiment [10], 53.7 µM; in experiment [11] it was 25.2 µM; in [12], 26.3 µM. The TGI was 38.4 µM in experiment [13]; 17.6 µM in experiment [14]; 41.8 µM in experiment [15]; 31.6 µM in experiment [16]; 37.9 µM in experiment [17]; 31 µM in [18].
